Experiments:
BSA = target: T1, BSA (Bos taurus, UniProt P02769); experiment: Three-dimensional fluorescence spectra of BSA; assay type: binding, bovine; details: BSA 10 μM + compound 10 μM, pH 7.4, 298 K
T1 construct: purchased HiMedia (Mumbai, India)
Text: (§1) To investigate the micro environmental changes in BSA/HSA during interaction with the compounds, three dimensional fluorescence spectroscopic studies have been performed. The changes observed in 3D emission spectra and contour lines of serum albumins in the absence and presence of ligands and complexes are given in Fig. 15, 16, S34 and S35 in the ESI ^† and their corresponding characteristic parameters are provided in Table 5. The emission spectra of serum albumins such as BSA and HSA have shown three characteristic peaks – peaks A and C corresponds to first and second order Rayleigh scattering and peak B corresponds to the spectral characteristics of Trp and Tyr residues of proteins.[57] The emission intensity of Rayleigh first order scattering peak increased upon adding the compounds to serum albumins. […] The fluorescence intensity of peak ‘B’ corresponding to the tryptophan and tyrosine residues decreased with slight blue shift. From the results, it is inferred that the molecular microenvironment and conformational changes of protein occurred after interaction with the complexes and ligands.
Fig. 15 Three-dimensional fluorescence spectra of BSA in the absence and presence of ruthenium(II) complexes 1–4 (pH 7.4, 298 K, [BSA] = 10 μM, [complex] = 10 μM).
Fig. S34. Three-dimensional fluorescence spectra of BSA in the absence and presence of
(§2) ligands H 2L1-4 (pH 7.4, 298 K, [HSA] =10 µM, [Ligand] =10 µM) […]

[1] = DPPH radical scavenging assay; details: in methanol
Experimental: (§3) It has been reported that free radical species such as reactive oxygen species (ROS), are involved in the pathogenesis of various diseases through effects on DNA directly and by acting as a tumour promoter.[59,60] The DPPH free radical scavenging activity of the ligands and complexes were studied and quantitatively antioxidant properties were determined by using phosphomolybdate method. We knew that the inhibitory effects of the tested compounds on DPPH radical are concentration dependent and the suppression ratio increases with increasing sample concentrations (Fig. S36 ^†). […] In the phosphomolybdenum assay, the antioxidant activity is expressed as the number of equivalents of ascorbic acid (Table 6). The total antioxidant activity of the compounds is in the following order complex 3 > complex 2 > complex 1 > complex 4 > H2L^3 > H2L^2 > H2L^1 > H2L^4 > ascorbic acid > [RuHClCO(PPh3)3]. The results concluded that the metal complexes are better antioxidants than their parent ligands which may be due to the chelation of the ligands to metal ion.[35] The radical scavenging ability of the new complexes is greater than that of few other reported ruthenium complexes, containing Schiff base ligands.[9]
(§4) The DPPH radical scavenging activity of the compounds have been carried out according to the reported method.[74] In this study, various concentrations of the experimental standard ascorbic acid, [RuHCl(CO)(PPh3)3], ligands (20–100 μM) and complexes (2–10 μM) in methanol were taken. Total antioxidant activity of the compounds was determined by the phosphomolybdate method.[75]

[2] = Total antioxidant capacity, phosphomolybdate method
Experimental: as §3, §4

HSA = target: T2, HSA (Homo sapiens, UniProt P02768); experiment: Three-dimensional fluorescence spectra of HSA; assay type: binding; details: HSA 10 μM + compound 10 μM, pH 7.4, 298 K
T2 construct: purchased HiMedia (Mumbai, India)
T2 sequence (P02768 25-609): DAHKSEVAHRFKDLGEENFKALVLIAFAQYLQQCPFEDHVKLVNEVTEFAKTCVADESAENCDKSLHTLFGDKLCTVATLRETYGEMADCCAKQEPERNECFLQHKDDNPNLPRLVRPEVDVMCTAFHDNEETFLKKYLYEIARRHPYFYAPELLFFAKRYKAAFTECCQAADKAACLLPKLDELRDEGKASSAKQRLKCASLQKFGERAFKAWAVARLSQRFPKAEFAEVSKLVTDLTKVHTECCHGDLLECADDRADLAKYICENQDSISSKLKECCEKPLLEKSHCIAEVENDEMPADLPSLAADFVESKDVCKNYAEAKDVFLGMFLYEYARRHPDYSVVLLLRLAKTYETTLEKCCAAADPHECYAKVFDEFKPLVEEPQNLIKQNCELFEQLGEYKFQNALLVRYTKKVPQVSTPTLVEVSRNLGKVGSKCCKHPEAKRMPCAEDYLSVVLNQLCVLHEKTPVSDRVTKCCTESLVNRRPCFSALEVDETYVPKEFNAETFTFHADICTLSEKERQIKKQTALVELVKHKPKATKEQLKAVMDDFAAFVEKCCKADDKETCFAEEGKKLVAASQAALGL
Text: as §1
Fig. 16 Three-dimensional fluorescence spectra of HSA in the absence and presence of ruthenium(II) complexes 1–4 (pH 7.4, 298 K, [HSA] = 10 μM, [complex] = 10 μM).
Fig. S35. Three-dimensional fluorescence spectra of HSA in the absence and presence of
as §2

CT-DNA = experiment: EB-DNA competitive binding (fluorescence quenching); parameters: species or system calf; details: compounds 10–100 μM; for quenching of the emission band of DNA-bound EB: % of the initial fluorescence intensity; for Quenching constant KSV: Stern–Volmer, DNA-EB 10 μM
Experimental: The competitive binding experiments were carried out on the EB–CT-DNA system by varying the concentrations of the ligands and complexes to get further information about the binding mode of compounds with DNA. In our studies, it was noted that upon concomitant addition of the compounds to the EB-DNA system, emission intensity decreased progressively, indicative of competition between EB and compounds towards CT-DNA in binding/chelation (Fig. S26 ^†). The reduction of the fluorescence emission intensity gives criteria to investigate the DNA binding propensity of the compounds and stacking interaction (intercalation) between the adjacent DNA base pairs.[45] […] This provides a direct evidence for the intercalative binding mode of the compounds with DNA.
Further quantitative measurement of the magnitude of interaction was ascertained by the classical Stern–Volmer equation. Quenching constant KSV is used to evaluate the quenching efficiency and is obtained from the slope of Io/I versus [Q] […] Further, the calculated KSV values of the compounds are significant when compared to the reported values.[30,31]
Supplementary Information
All the experiments involving CT-DNA binding were carried out in deionised water with tris(hydroxymethyl)-aminomethane (Tris, 5 mM) and sodium chloride (50 mM) and adjusted to pH 7.2 with hydrochloric acid at room temperature. The concentration of CT-DNA was determined by UV absorbance at 260 nm. Solutions of CT-DNA in Tris-HCl buffer gave a ratio of UV absorbance at 260 and 280 nm, A260/A280, of approximately 1.9, […]
The molar absorption coefficient, […]
[DNA]/[εa-εf]) = [DNA]/[ε b-εf]+1/Kb[εb-εf] (S1) […]
EB-DNA. The change in the fluorescence intensity was recorded. Before measurements, the system was shaken well and incubated at room temperature for 5 min. […]

T1 sequence (P02769 25-607): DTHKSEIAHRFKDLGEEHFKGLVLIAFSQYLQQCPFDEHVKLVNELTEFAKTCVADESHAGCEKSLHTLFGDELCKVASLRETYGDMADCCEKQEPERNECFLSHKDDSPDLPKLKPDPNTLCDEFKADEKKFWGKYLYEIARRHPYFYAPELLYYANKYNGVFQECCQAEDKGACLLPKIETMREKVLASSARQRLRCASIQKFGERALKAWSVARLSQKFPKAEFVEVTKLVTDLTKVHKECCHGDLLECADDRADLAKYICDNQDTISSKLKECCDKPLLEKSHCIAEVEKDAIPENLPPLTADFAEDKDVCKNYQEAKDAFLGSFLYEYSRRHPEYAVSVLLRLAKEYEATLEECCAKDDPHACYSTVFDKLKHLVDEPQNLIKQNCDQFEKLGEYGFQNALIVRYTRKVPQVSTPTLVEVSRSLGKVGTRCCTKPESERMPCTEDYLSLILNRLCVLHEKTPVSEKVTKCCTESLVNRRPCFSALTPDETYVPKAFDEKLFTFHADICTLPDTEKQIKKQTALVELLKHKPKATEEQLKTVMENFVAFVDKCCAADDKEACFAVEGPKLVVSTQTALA

## CNC(=S)NN=C(C)c1cc2ccc(OC)cc2oc1=O [H2L^2, ((1E)-1-(1-(7-methoxy-2-oxo-2H-chromen-3-yl)ethylidene) 4(N)-methylthiosemicarbazone)]
other
  melting point: 117 °C

## COc1ccc2[c]3c(c(=O)oc2c1)C(C)=[N+]1N=C(N)[S][Ru-4]31([C]#[O+])([P+](c1ccccc1)(c1ccccc1)c1ccccc1)[P+](c1ccccc1)(c1ccccc1)c1ccccc1 [Complex 1, [Ru(7MAC-tsc)(CO)(PPh3)2]]
BSA
  Fluorescence peaks Intensity (F): 395.56
  Fluorescence peaks Peak position λex/λem: 280/338
  Fluorescence peaks Stokes Δλ: 58 nm
  Rayleigh scattering peaks Intensity (F): 867.32
[1]
  IC50: 7.13 ± 0.23 µM
[2]
  Total antioxidant capacity: 54.13 ± 0.28 μg ascorbic acid equivalents/ml
HSA
  Fluorescence peaks Intensity (F): 268.14
  Fluorescence peaks Peak position λex/λem: 280/335
  Fluorescence peaks Stokes Δλ: 55 nm
  Rayleigh scattering peaks Intensity (F): 652.04
CT-DNA
  quenching of the emission band of DNA-bound EB: 27.83%
  Quenching constant KSV: 4.16 ± 0.002 × 10^3 M^−1

## CCNC(=S)NN=C(C)c1cc2ccc(OC)cc2oc1=O [H2L^3, ((1E)-1-(1-(7-methoxy-2-oxo-2H-chromen-3-yl)ethylidene) 4(N)-ethylthiosemicarbazone)]
other
  melting point: 174 °C

## COc1ccc2cc(C(C)=NNC(N)=S)c(=O)oc2c1 [H2L^1, ((1E)-1-(1-(7-methoxy-2-oxo-2H-chromen-3-yl)ethylidene)thiosemicarbazone)]
other
  melting point: 213 °C

## CNC1=N[N+]2=C(C)c3[c](c4ccc(OC)cc4oc3=O)[Ru-4]2([C]#[O+])([P+](c2ccccc2)(c2ccccc2)c2ccccc2)([P+](c2ccccc2)(c2ccccc2)c2ccccc2)[S]1 [Complex 2, [Ru(7MAC-mtsc)(CO)(PPh3)2]]
BSA
  Fluorescence peaks Intensity (F): 372.76
  Fluorescence peaks Peak position λex/λem: 280/339
  Fluorescence peaks Stokes Δλ: 59 nm
  Rayleigh scattering peaks Intensity (F): 837.83
[1]
  IC50: 6.75 ± 0.18 µM
[2]
  Total antioxidant capacity: 58.27 ± 0.46 μg ascorbic acid equivalents/ml
HSA
  Fluorescence peaks Intensity (F): 269.53
  Fluorescence peaks Peak position λex/λem: 280/331
  Fluorescence peaks Stokes Δλ: 51 nm
  Rayleigh scattering peaks Intensity (F): 790.59
CT-DNA
  quenching of the emission band of DNA-bound EB: 36.67%
  Quenching constant KSV: 5.52 ± 0.009 × 10^3 M^−1

## COc1ccc2cc(/C(C)=N\NC(=S)Nc3ccccc3)c(=O)oc2c1 [H2L^4, ((1E)-1-(1-(7-methoxy-2-oxo-2H-chromen-3-yl)ethylidene) 4(N)-phenylthiosemicarbazone)]
other
  melting point: 186 °C

## COc1ccc2[c]3c(c(=O)oc2c1)C(C)=[N+]1N=C(Nc2ccccc2)[S][Ru-4]31([C]#[O+])([P+](c1ccccc1)(c1ccccc1)c1ccccc1)[P+](c1ccccc1)(c1ccccc1)c1ccccc1 [Complex 4, [Ru(7MAC-ptsc)(CO)(PPh3)2]]
BSA
  Fluorescence peaks Intensity (F): 368.76
  Fluorescence peaks Peak position λex/λem: 280/340
  Fluorescence peaks Stokes Δλ: 60 nm
  Rayleigh scattering peaks Intensity (F): 741.59
[1]
  IC50: 7.39 ± 0.14 µM
[2]
  Total antioxidant capacity: 54.99 ± 0.65 μg ascorbic acid equivalents/ml
HSA
  Fluorescence peaks Intensity (F): 276.12
  Fluorescence peaks Peak position λex/λem: 280/332
  Fluorescence peaks Stokes Δλ: 52 nm
  Rayleigh scattering peaks Intensity (F): 830.46
CT-DNA
  quenching of the emission band of DNA-bound EB: 28.92%
  Quenching constant KSV: 4.00 ± 0.002 × 10^3 M^−1

## CCNC1=N[N+]2=C(C)c3[c](c4ccc(OC)cc4oc3=O)[Ru-4]2([C]#[O+])([P+](c2ccccc2)(c2ccccc2)c2ccccc2)([P+](c2ccccc2)(c2ccccc2)c2ccccc2)[S]1 [Complex 3, [Ru(7MAC-etsc)(CO)(PPh3)2]]
BSA
  Fluorescence peaks Intensity (F): 304.43
  Fluorescence peaks Peak position λex/λem: 280/339
  Fluorescence peaks Stokes Δλ: 59 nm
  Rayleigh scattering peaks Intensity (F): 958.23
[1]
  IC50: 5.28 ± 0.24 µM
[2]
  Total antioxidant capacity: 62.71 ± 0.37 μg ascorbic acid equivalents/ml
HSA
  Fluorescence peaks Intensity (F): 266.21
  Fluorescence peaks Peak position λex/λem: 280/337
  Fluorescence peaks Stokes Δλ: 57 nm
  Rayleigh scattering peaks Intensity (F): 612.58
CT-DNA
  quenching of the emission band of DNA-bound EB: 36.99%
  Quenching constant KSV: 5.62 ± 0.003 × 10^3 M^−1

Reference: publication PMC9077138, “An investigation on 3-acetyl-7-methoxy-coumarin Schiff bases and their Ru(II) metallates with potent antiproliferative activity and enhanced LDH and NO release” (RSC Advances, 2018)
